Results on four compounds are retold here after patent US12252524B2, “GIP/GLP1 co-agonist compounds” (Eli Lilly and Company, priority 2018, dated 2025).

Assay [1] concerns the target human GLP-1 receptor (GLP-1R) (Homo sapiens, UniProt P43220). The assay is described as follows: cAMP pharmacological functional assay in presence of casein, hGLP-1R. It counts as cell-based. To be noted: HEK293 cells expressing hGLP-1R, 0.1% Casein, geometric mean; read-out: hGLP1R cAMP Rel EC50 nM (SEM, n).
Another assay has as its target T1, human GIP receptor (Homo sapiens, UniProt P48546).
T1 construct: expressed in transfected cells; crude membranes
T1 sequence (P48546 22-466): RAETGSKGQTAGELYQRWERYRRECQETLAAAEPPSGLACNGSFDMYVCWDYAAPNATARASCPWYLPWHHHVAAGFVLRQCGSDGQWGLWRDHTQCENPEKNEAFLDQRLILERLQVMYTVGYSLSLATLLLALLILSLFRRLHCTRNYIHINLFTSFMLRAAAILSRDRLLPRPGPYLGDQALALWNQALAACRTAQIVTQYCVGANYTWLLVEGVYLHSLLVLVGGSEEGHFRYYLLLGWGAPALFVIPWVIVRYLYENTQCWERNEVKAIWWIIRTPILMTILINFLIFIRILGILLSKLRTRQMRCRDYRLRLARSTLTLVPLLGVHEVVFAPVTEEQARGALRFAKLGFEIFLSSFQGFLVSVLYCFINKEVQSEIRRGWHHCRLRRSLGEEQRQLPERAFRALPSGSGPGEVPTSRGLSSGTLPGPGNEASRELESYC
In words: [125I]-GIP binding (SPA), human GIP receptor. To be noted: read-out: hGIPR Ki, nM (SEM, n).

Another assay has as its target human GLP-1R (Homo sapiens, UniProt P43220). The assay is described as follows: [125I]-GLP-1 binding (SPA), human GLP-1 receptor. Also on record: expressed in transfected cells; crude membranes. Conditions: read-out: hGLP1R Ki, (nM) (SEM, n). The procedure, abridged: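 Assay buffer: HEPES 25 mM, pH 7.4, CaCl2 2.5 mM, MgCl2 1 mM, with EDTA-free protease inhibitors. Receptor came from crude cell membranes prepared by homogenization and centrifugation at 4° C. IC50s came from four-parameter fits (maximum, minimum, IC50, Hill slope) and were expressed as Ki geometric means with SEM.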

The next assay concerns the target T2, human Gcg receptor (Homo sapiens, UniProt P47871).
T2 construct: expressed in transfected cells; crude membranes
In words: [125I]-Glucagon binding (SPA), human Gcg receptor. Conditions: read-out: hGLcgR Ki, nM (SEM, n). The method in brief: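 Cell pellets were lysed in hypotonic Tris buffer, pH 7.5, homogenized, and spun at low then high speed to give crude membranes. Ki was derived from the fitted IC50.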

The target in assay [2] is T3, gastric inhibitory peptide receptor (GIPR) (Homo sapiens, UniProt P48546).
T3 sequence (P48546 22-466): T1 sequence (P48546 22-466)
In words: cAMP pharmacological functional assay in presence of casein, hGIPR. To be noted: HEK293 cells expressing hGIPR, 0.1% Casein, geometric mean; read-out: hGIPR cAMP Rel EC50 nM (SEM, n). It counts as cell-based.

Numbered stars: 1 amine (or outer) side, 2 acyl side, 3 side chain; on linkers, the order of the positions; unused ones are H or OH. Square brackets hold non-standard residues; d marks the D form. Side chains are listed from the residue outwards. Peptide text beside a SMILES is read from it. * marks the point of attachment. C20 diacid = O=C(O)CCCCCCCCCCCCCCCCCCC(=O)*; γGlu = O=C(O)[C@H](CCC(=O)[*:2])N[*:1]; AEEA = NCCOCCOCC(=O)O; Aib = CC(C)(N)C(=O)O Some results are limits rather than exact numbers.

T2 sequence (P47871 26-477): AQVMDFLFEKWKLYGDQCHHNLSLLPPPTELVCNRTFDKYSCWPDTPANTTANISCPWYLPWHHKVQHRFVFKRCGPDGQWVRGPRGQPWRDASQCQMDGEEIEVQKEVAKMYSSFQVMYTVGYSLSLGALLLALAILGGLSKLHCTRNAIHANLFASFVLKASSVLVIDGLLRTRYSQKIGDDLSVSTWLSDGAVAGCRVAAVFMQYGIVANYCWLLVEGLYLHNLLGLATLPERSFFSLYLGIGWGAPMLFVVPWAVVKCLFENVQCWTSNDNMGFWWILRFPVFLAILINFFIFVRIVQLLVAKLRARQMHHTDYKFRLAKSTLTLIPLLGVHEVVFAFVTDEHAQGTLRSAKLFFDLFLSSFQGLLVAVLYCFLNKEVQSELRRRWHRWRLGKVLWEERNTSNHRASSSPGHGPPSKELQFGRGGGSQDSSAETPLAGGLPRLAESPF
Sequence of human GLP-1 receptor (GLP-1R) (P43220 24-463): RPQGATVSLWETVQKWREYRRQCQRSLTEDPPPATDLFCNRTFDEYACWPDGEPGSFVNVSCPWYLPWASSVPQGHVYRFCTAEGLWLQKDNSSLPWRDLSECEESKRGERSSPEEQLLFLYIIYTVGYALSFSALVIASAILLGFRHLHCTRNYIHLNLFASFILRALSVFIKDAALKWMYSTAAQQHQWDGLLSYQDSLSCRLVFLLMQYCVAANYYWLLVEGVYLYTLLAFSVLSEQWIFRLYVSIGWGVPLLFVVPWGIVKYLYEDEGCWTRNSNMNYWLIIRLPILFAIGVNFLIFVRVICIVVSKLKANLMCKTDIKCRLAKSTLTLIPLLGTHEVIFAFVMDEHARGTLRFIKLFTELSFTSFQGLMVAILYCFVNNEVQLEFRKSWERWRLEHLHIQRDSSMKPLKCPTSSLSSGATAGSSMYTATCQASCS
Sequence of human GLP-1R (P43220 24-463): as above

On to `CC[C@H](C)[C@H](NC(=O)[C@H](CCCCN)NC(=O)[C@H](CC(=O)O)NC(=O)[C@H](CC(C)C)NC(=O)[C@H](CC(C)C)NC(=O)[C@H](CCCCNC(=O)COCCOCCNC(=O)COCCOCCNC(=O)CC[C@H](NC(=O)CCCCCCCCCCCCCCCCCCC(=O)O)C(=O)O)NC(=O)[C@H](CO)NC(=O)[C@H](Cc1ccc(O)cc1)NC(=O)[C@H](CC(=O)O)NC(=O)[C@H](CO)NC(=O)[C@@H](NC(=O)[C@H](Cc1ccccc1)NC(=O)[C@@H](NC(=O)CNC(=O)[C@H](CCC(=O)O)NC(=O)C(C)(C)NC(=O)[C@@H](N)Cc1ccc(O)cc1)[C@@H](C)O)[C@@H](C)O)C(=O)N[C@@H](C)C(=O)N[C@@H](CCC(N)=O)C(=O)NC(C)(C)C(=O)N[C@@H](C)C(=O)N[C@@H](Cc1ccccc1)C(=O)N[C@H](C(=O)N[C@@H](CCC(=O)O)C(=O)N[C@@H](Cc1ccc(O)cc1)C(=O)N[C@@H](CC(C)C)C(=O)N[C@H](C(=O)N[C@@H](CCC(=O)O)C(=O)NCC(=O)NCC(=O)N1CCC[C@H]1C(=O)N[C@@H](CO)C(=O)N[C@@H](CO)C(=O)NCC(=O)N[C@@H](C)C(=O)N1CCC[C@H]1C(=O)N1CCC[C@H]1C(=O)N1CCC[C@H]1C(=O)N[C@@H](CO)C(N)=O)[C@@H](C)CC)[C@@H](C)CC` [Example 25] (H-Y[Aib]EGTFTSDYSK([AEEA-AEEA-γGlu-C20 diacid])LLDKIAQ[Aib]AFIEYLIEGGPSSGAPPPS-NH2), for which the values for the EC50 in assay [1] and in assay [2] were 0.356 nM and 0.23 nM, respectively. The Ki at human GIP receptor was found to be 0.179 nM; on human GLP-1R it was 4.8 nM; on human Gcg receptor, 81.1 nM.

`CC[C@H](C)[C@H](NC(=O)[C@H](CCCCN)NC(=O)[C@H](CC(=O)O)NC(=O)[C@H](CC(C)C)NC(=O)[C@H](CCCCNC(=O)COCCOCCNC(=O)COCCOCCNC(=O)CC[C@H](NC(=O)CCCCCCCCCCCCCCCCCCC(=O)O)C(=O)O)NC(=O)[C@@H](NC(=O)[C@H](CO)NC(=O)[C@H](Cc1ccc(O)cc1)NC(=O)[C@H](CC(=O)O)NC(=O)[C@H](CO)NC(=O)[C@@H](NC(=O)[C@H](Cc1ccccc1)NC(=O)[C@@H](NC(=O)CNC(=O)[C@H](CCC(=O)O)NC(=O)C(C)(C)NC(=O)[C@@H](N)Cc1ccc(O)cc1)[C@@H](C)O)[C@@H](C)O)[C@@H](C)CC)C(=O)N[C@@H](C)C(=O)N[C@@H](CCC(N)=O)C(=O)NC(C)(C)C(=O)N[C@@H](C)C(=O)N[C@@H](Cc1ccccc1)C(=O)N[C@H](C(=O)N[C@@H](CCC(=O)O)C(=O)N[C@@H](Cc1ccc(O)cc1)C(=O)N[C@@H](CC(C)C)C(=O)N[C@H](C(=O)N[C@@H](CCC(=O)O)C(=O)NCC(=O)NCC(=O)N1CCC[C@H]1C(=O)N[C@@H](CO)C(=O)N[C@@H](CO)C(=O)NCC(=O)N[C@@H](C)C(=O)N1CCC[C@H]1C(=O)N1CCC[C@H]1C(=O)N1CCC[C@H]1C(=O)N[C@@H](CO)C(N)=O)[C@@H](C)CC)[C@@H](C)CC` [Example 26] (H-Y[Aib]EGTFTSDYSIK([AEEA-AEEA-γGlu-C20 diacid])LDKIAQ[Aib]AFIEYLIEGGPSSGAPPPS-NH2): the values for the 50% effective concentration (EC50) in assay [1] and in assay [2] were 0.293 nM and 0.251 nM, respectively. In addition, the inhibition constant Ki was 0.176 nM at human GIP receptor, 4.22 nM at human GLP-1R and greater than 960 nM on human Gcg receptor.

For the compound `CC[C@H](C)[C@H](NC(=O)[C@H](CCCCN)NC(=O)[C@H](CC(=O)O)NC(=O)[C@H](CCCCNC(=O)COCCOCCNC(=O)COCCOCCNC(=O)CC[C@H](NC(=O)CCCCCCCCCCCCCCCCCCC(=O)O)C(=O)O)NC(=O)[C@H](CC(C)C)NC(=O)[C@@H](NC(=O)[C@H](CO)NC(=O)[C@H](Cc1ccc(O)cc1)NC(=O)[C@H](CC(=O)O)NC(=O)[C@H](CO)NC(=O)[C@@H](NC(=O)[C@H](Cc1ccccc1)NC(=O)[C@@H](NC(=O)CNC(=O)[C@H](CCC(=O)O)NC(=O)C(C)(C)NC(=O)[C@@H](N)Cc1ccc(O)cc1)[C@@H](C)O)[C@@H](C)O)[C@@H](C)CC)C(=O)N[C@@H](C)C(=O)N[C@@H](CCC(N)=O)C(=O)NC(C)(C)C(=O)N[C@@H](C)C(=O)N[C@@H](Cc1ccccc1)C(=O)N[C@H](C(=O)N[C@@H](CCC(=O)O)C(=O)N[C@@H](Cc1ccc(O)cc1)C(=O)N[C@@H](CC(C)C)C(=O)N[C@H](C(=O)N[C@@H](CCC(=O)O)C(=O)NCC(=O)NCC(=O)N1CCC[C@H]1C(=O)N[C@@H](CO)C(=O)N[C@@H](CO)C(=O)NCC(=O)N[C@@H](C)C(=O)N1CCC[C@H]1C(=O)N1CCC[C@H]1C(=O)N1CCC[C@H]1C(=O)N[C@@H](CO)C(N)=O)[C@@H](C)CC)[C@@H](C)CC` [Example 27] (H-Y[Aib]EGTFTSDYSILK([AEEA-AEEA-γGlu-C20 diacid])DKIAQ[Aib]AFIEYLIEGGPSSGAPPPS-NH2), the concentration for a half-maximal effect (EC50) in assay [1] worked out at 0.557 nM; in assay [2], 0.0789 nM. Besides, the Ki on human GIP receptor stood at 0.103 nM; on human GLP-1R it was 3.68 nM; at human Gcg receptor, 315 nM.

With `CC[C@H](C)[C@H](NC(=O)[C@H](CCCCN)NC(=O)[C@H](CCCCNC(=O)COCCOCCNC(=O)COCCOCCNC(=O)CC[C@H](NC(=O)CCCCCCCCCCCCCCCCCCC(=O)O)C(=O)O)NC(=O)[C@H](CC(C)C)NC(=O)[C@H](CC(C)C)NC(=O)[C@@H](NC(=O)[C@H](CO)NC(=O)[C@H](Cc1ccc(O)cc1)NC(=O)[C@H](CC(=O)O)NC(=O)[C@H](CO)NC(=O)[C@@H](NC(=O)[C@H](Cc1ccccc1)NC(=O)[C@@H](NC(=O)CNC(=O)[C@H](CCC(=O)O)NC(=O)C(C)(C)NC(=O)[C@@H](N)Cc1ccc(O)cc1)[C@@H](C)O)[C@@H](C)O)[C@@H](C)CC)C(=O)N[C@@H](C)C(=O)N[C@@H](CCC(N)=O)C(=O)NC(C)(C)C(=O)N[C@@H](C)C(=O)N[C@@H](Cc1ccccc1)C(=O)N[C@H](C(=O)N[C@@H](CCC(=O)O)C(=O)N[C@@H](Cc1ccc(O)cc1)C(=O)N[C@@H](CC(C)C)C(=O)N[C@H](C(=O)N[C@@H](CCC(=O)O)C(=O)NCC(=O)NCC(=O)N1CCC[C@H]1C(=O)N[C@@H](CO)C(=O)N[C@@H](CO)C(=O)NCC(=O)N[C@@H](C)C(=O)N1CCC[C@H]1C(=O)N1CCC[C@H]1C(=O)N1CCC[C@H]1C(=O)N[C@@H](CO)C(N)=O)[C@@H](C)CC)[C@@H](C)CC` [Example 28] (H-Y[Aib]EGTFTSDYSILLK([AEEA-AEEA-γGlu-C20 diacid])KIAQ[Aib]AFIEYLIEGGPSSGAPPPS-NH2), the 50% effective concentration (EC50) in assay [1] is 32.7 nM; in assay [2] it was 1.66 nM. For the same compound, the values for the Ki at human GIP receptor, at human GLP-1R and on human Gcg receptor were 0.24 nM, 21.1 nM and greater than 902 nM, respectively.

Broadly, the EC50 is the concentration giving half of the maximal effect. As usually defined, the Ki is the equilibrium dissociation constant of an inhibitor or competing ligand from its target.
